The compounds below were run against C-Raf FL (Homo sapiens (Human), UniProt P04049, Y340E/Y341E) (assay: In vitro Raf activity determination (Alpha Screen, phospho-MEK), C-Raf FL (full length, Y340E/Y341E)). Conditions: ATP 1 μM; 60 min pre-incubation; 1 hour reaction; column head does not say FL or TR.
Assay type: biochemical
Procedure, shortened: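 Read-out is AlphaScreen luminescence using rabbit anti-p-MEK with protein A beads after EDTA stop, with IC50 fitted by non-linear regression. Reaction: Sf9-derived C-Raf plus biotinylated E. coli MEK1 K97R substrate, pH 7.5 Tris/MgCl2/DTT buffer, compound preincubated 60 min at room temperature.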

Sequence of C-Raf FL (P04049 whole entry Y340E/Y341E): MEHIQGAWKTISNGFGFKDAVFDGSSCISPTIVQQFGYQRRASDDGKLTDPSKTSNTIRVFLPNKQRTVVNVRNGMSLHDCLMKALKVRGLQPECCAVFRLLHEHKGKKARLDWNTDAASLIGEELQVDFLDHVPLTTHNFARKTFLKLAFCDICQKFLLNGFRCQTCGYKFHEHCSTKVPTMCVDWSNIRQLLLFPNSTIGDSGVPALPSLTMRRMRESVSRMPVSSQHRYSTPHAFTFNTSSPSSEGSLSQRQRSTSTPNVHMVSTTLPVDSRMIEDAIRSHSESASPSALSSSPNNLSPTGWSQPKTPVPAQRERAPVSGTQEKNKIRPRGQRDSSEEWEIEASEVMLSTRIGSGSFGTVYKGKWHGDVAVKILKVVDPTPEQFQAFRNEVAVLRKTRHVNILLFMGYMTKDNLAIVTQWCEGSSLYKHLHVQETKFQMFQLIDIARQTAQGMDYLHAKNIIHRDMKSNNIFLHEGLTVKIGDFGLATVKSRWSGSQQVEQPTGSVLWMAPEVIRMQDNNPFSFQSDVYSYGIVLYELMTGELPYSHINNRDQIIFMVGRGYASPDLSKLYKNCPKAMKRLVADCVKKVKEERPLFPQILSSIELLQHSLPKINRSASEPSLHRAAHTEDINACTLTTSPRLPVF
Sequence of C-Raf FL (P63104 whole entry partner): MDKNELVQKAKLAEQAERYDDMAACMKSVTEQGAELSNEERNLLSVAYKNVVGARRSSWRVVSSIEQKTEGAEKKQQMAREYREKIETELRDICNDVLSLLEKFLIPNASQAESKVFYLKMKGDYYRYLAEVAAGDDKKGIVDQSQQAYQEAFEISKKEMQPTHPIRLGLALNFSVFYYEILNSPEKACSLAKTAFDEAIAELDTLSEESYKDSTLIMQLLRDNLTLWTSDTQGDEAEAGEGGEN

Compared with CCOc1ncc(-c2cc(NC(=O)c3cccc(C(F)(F)F)c3)cnc2C)cc1C1(O)CCOC1 (centres unmarked) [Example 294, N-(6′-ethoxy-5′-(3-hydroxytetrahydro-furan-3-yl)-2-methyl-[3,3′-bipyridin]-5-yl)-3-(trifluoromethyl) benzamide], CCOc1ncc(-c2cc(NC(=O)c3cccc(C(F)(F)F)c3)cnc2C)cc1C1(CF)CCOC1 (centres unmarked) [Example 167, N-(6′-ethoxy-5′-(3-(fluoromethyl)tetrahydrofuran-3-yl)-2-methyl-[3,3′-bipyridin]-5-yl)-3-(trifluoromethyl) benzamide] is 2-fold lower in IC50: 2 nM for the first, 1 nM for the second.

Compared with CCOc1ncc(-c2cc(NC(=O)c3ccnc(C(C)(C)F)c3)ccc2C)cc1C1(CO)CCOC1 (centres unmarked) [Example 291, N-(3-(6-ethoxy-5-(3-(hydroxymethyl)tetrahydrofuran-3-yl)pyridin-3-yl)-4-methylphenyl)-2-(2-fluoropropan-2-yl)isonicotinamide], CCOc1ncc(-c2cc(NC(=O)c3ccnc(C(C)(C)C#N)c3)cnc2C)cc1C1(CF)CCOC1 (centres unmarked) [Example 166, 2-(2-cyanopropan-2-yl)-N-(6′-ethoxy-5′-(3-(fluoromethyl)tetrahydrofuran-3-yl)-2-methyl-[3,3′-bipyridin]-5-yl)isonicotinamide] is 2-fold higher in IC50: 1 nM for the first, 2 nM for the second.

Cc1ccc(NC(=O)c2ccnc(Cl)c2)cc1-c1cc(OC[C@H](O)CO)nc(C2CCOCC2)c1 [Example 280, (R)-2-chloro-N-(3-(2-(2,3-dihydroxypropoxy)-6-(tetrahydro-2H-pyran-4-yl)pyridin-4-yl)-4-methylphenyl) isonicotinamide] and Cc1ccc(NC(=O)c2cc(C(F)(F)F)ccn2)cc1-c1cc(OC[C@H](O)CO)nc(C2CCOCC2)c1 [Example 283, (R)-N-(3-(2-(2,3-dihydroxypropoxy)-6-(tetrahydro-2H-pyran-4-yl)pyridin-4-yl)-4-methylphenyl)-4-(trifluoromethyl) picolinamide] are the same in IC50: 0.07 nM for the first, 0.07 nM for the second.

Cc1ccc(NC(=O)c2ccnc(C(C)(C)C#N)c2)cc1-c1cc(OCCO)nc(C2(CF)CCOCC2)c1 [Example 213, 2-(2-cyanopropan-2-yl)-N-(3-(2-(4-(fluoromethyl)tetrahydro-2H-pyran-4-yl)-6-(2-hydroxyethoxy)pyridin-4-yl)-4-methylphenyl) isonicotinamide] and Cc1ccc(NC(=O)c2ccnc(C(C)(F)F)c2)cc1-c1cc(OCCO)nc(C2(CF)CCOCC2)c1 [Example 211, 2-(1,1-difluoroethyl)-N-(3-(2-(4-(fluoromethyl)tetrahydro-2H-pyran-4-yl)-6-(2-hydroxyethoxy)pyridin-4-yl)-4-methylphenyl) isonicotinamide] are within 1.5-fold of each other in IC50: 0.2 nM for the first, 0.3 nM for the second.

Going from CCOc1nnc(-c2cc(NC(=O)c3ccc4c(c3)CNC4)ccc2C)cc1C1CCOCC1 [Example 285, N-(3-(6-ethoxy-5-(tetrahydro-2H-pyran-4-yl)pyridazin-3-yl)-4-methylphenyl) isoindoline-5-carboxamid] to CCOc1nnc(-c2cc(NC(=O)c3cc(C(F)(F)F)cnn3)ccc2C)cc1C1CCOCC1 [Example 240, N-(3-(6-ethoxy-5-(tetrahydro-2H-pyran-4-yl)pyridazin-3-yl)-4-methylphenyl)-5-(trifluoromethyl) pyridazine-3-carboxamide], the IC50 falls from 0.9 nM to 0.04 nM (22-fold).

Going from COC1(c2cc(-c3cc(NC(=O)c4cc(C(F)(F)F)ccn4)ccc3C)cc(NCCO)n2)COC1 [Example 154, N-(3-(2-((2-hydroxyethyl)amino)-6-(3-methoxyoxetan-3-yl)pyridin-4-yl)-4-methylphenyl)-4-(trifluoromethyl)picolin-amide] to Cc1ccc(NC(=O)c2cc(C(F)(F)F)ccn2)cc1-c1cc(OCCO)nc(C2(CO)CCOCC2)c1 [Example 219], the IC50 rises from 0.04 nM to 0.5 nM (12-fold).

Compared with COC1(c2cc(-c3cc(NC(=O)c4ccnc(C(C)(C)F)c4)cnc3C)cnc2OCCO)COC1 [Example 61, 2-(2-fluoropropan-2-yl)-N-(6′-(2-hydroxyethoxy)-5′-(3-methoxyoxetan-3-yl)-2-methyl-[3,3′-bipyridin]-5-yl)isonicotinamide], CCOc1ncc(-c2cc(NC(=O)c3ccnc(C(C)(C)F)c3)cnc2C)cc1C1(C#N)CCOC1 (centres unmarked) [Example 170, N-(5′-(3-cyanotetrahydrofuran-3-yl)-6′-ethoxy-2-methyl-[3,3′-bipyridin]-5-yl)-2-(2-fluoropropan-2-yl) isonicotinamide] is 1.5-fold higher in IC50: 1.32 nM for the first, 2 nM for the second. The first is the more potent here.

First: Cc1ccc(NC(=O)c2ccnc(C(F)(F)F)c2)cc1-c1cc(C2(C)COC2)c(OCCO)nn1 [Example 14, N-(3-(6-(2-hydroxyethoxy)-5-(3-methyloxetan-3-yl)pyridazin-3-yl)-4-methylphenyl)-2-(trifluoromethyl)isonicotinamide]
Second: COc1ncc(-c2cc(C(=O)Nc3ccnc(C(F)(F)F)c3)ccc2C)cc1C1(O)COC1 [Example 17, 3-(5-(3-hydroxyoxetan-3-yl)-6-methoxypyridin-3-yl)-4-methyl-N-(2-(trifluoromethyl)pyridin-4-yl)benzamide]
The IC50 of the first is 3.5-fold lower: 0.2 nM for the first, 0.7 nM for the second.

Going from Cc1ccc(NC(=O)c2ccnc(C(F)(F)F)c2)cc1-c1cc(OCCO)nc(C2CCOCC2O)c1 (centres unmarked) [Example 162, N-(3-(2-(2-hydroxyethoxy)-6-(3-hydroxytetrahydro-2H-pyran-4-yl)pyridin-4-yl)-4-methylphenyl)-2-(trifluoromethyl)isonicotinamide] to Cc1ccc(NC(=O)c2cc(C(F)(F)F)ccn2)cc1-c1cc(OCCO)nc(C2CCOCC2O)c1 (centres unmarked) [Example 247], the IC50 falls from 1 nM to 0.4 nM (2.5-fold). The second is the more potent here.

Compared with Cc1ccc(NC(=O)c2ccnc(C(F)F)c2)cc1-c1cc(OCCO)nc(C2(CF)COC2)c1 [Example 55, 2-(difluoromethyl)-N-(3-(2-(3-(fluoromethyl)oxetan-3-yl)-6-(2-hydroxyethoxy)pyridin-4-yl)-4-methylphenyl)isonicotin-amide], Cc1ccc(NC(=O)c2ccnc(C(F)(F)F)c2)cc1-c1cc(OCCO)nc(C2(CF)CCOCC2)c1 [Example 210] is 4-fold higher in IC50: 0.0747 nM for the first, 0.3 nM for the second. The first is the more potent here.

Going from Cc1ccc(NC(=O)c2cccc(C(F)(F)F)c2)cc1-c1cc(NCCO)nc(C2CCOCC2)c1 [Example 174] to Cc1ccc(NC(=O)c2ccnc(C(F)(F)F)c2)cc1-c1cc(OCCO)nc(C2CCOCC2)c1 [Example 190, N-(3-(2-(2-hydroxyethoxy)-6-(tetrahydro-2H-pyran-4-yl)pyridin-4-yl)-4-methylphenyl)-2-(trifluoromethyl) isonicotinamide], the IC50 rises from 0.331 nM to 0.795 nM (2.4-fold).

Going from Cc1ncc(NC(=O)c2ccnc(C(C)(C)F)c2)cc1-c1cc(C2(O)COC2)cc(C2(F)COC2)c1 [Example 142, N-(5-(3-(3-fluorooxetan-3-yl)-5-(3-hydroxyoxetan-3-yl)phenyl)-6-methylpyridin-3-yl)-2-(2-fluoropropan-2-yl)isonicotinamide] to Cc1ccc(NC(=O)c2ccnc(C(C)(C)C#N)c2)cc1-c1cc(C2(O)COC2)cc(C2(F)COC2)c1 [Example 138, 2-(2-cyanopropan-2-yl)-N-(3′-(3-fluorooxetan-3-yl)-5′-(3-hydroxyoxetan-3-yl)-6-methyl-[1,1′-biphenyl]-3-yl)isonicotinamide], the IC50 falls from 11.2 nM to 2.19 nM (5.1-fold). The second is the more potent here.

First: Cc1ccc(NC(=O)c2cc(C(F)(F)F)nc(N(C)C)n2)cc1-c1cc(OCCO)nc(C2CCOCC2)c1 [Example 257, 2-(dimethylamino)-N-(3-(2-(2-hydroxyethoxy)-6-(tetrahydro-2H-pyran-4-yl)pyridin-4-yl)-4-methylphenyl)-6-(trifluoromethyl) pyrimidine-4-carboxamide]
Second: Cc1ccc(NC(=O)c2cc(C(F)(F)F)ccn2)cc1-c1cc(OCCO)nc(C2CCOCC2)c1 [Example 272, N-(3-(2-(2-hydroxyethoxy)-6-(tetrahydro-2H-pyran-4-yl)pyridin-4-yl)-4-methylphenyl)-4-(trifluoromethyl) picolinamide]
The IC50 of the first is 20-fold higher: 1 nM for the first, 0.05 nM for the second. The second is the more potent here.

Compared with Cc1ccc(NC(=O)c2cc(C(F)(F)F)ccn2)cc1-c1cc2c(c(C3CCOCC3)c1)NC(=O)C(C)(CO)O2 (centres unmarked) [Example 192, N-(3-(2-(hydroxymethyl)-2-methyl-3-oxo-5-(tetrahydro-2H-pyran-4-yl)-3,4-dihydro-2H-benzo [b][1,4]oxazin-7-yl)-4-methylphenyl)-4-(trifluoromethyl) picolinamide], Cc1ccc(NC(=O)c2ccnc(C(C)(F)F)c2)cc1-c1cc(C2CCOCC2)nc(N(CCO)CCO)c1 [Example 177, N-(3-(2-(bis(2-hydroxyethyl)amino)-6-(tetrahydro-2H-pyran-4-yl)pyridin-4-yl)-4-methylphenyl)-2-(1,1-difluoroethyl) isonicotinamide] is 2.1-fold higher in IC50: 0.3 nM for the first, 0.621 nM for the second. The first is the more potent here.

Cc1ccc(NC(=O)c2ccc(CN)c(C(F)(F)F)c2)cc1-c1cccc(C2COC2)c1 [Example 5, 4-(aminomethyl)-N-(6-methyl-3′-(oxetan-3-yl)-[1,1′-biphenyl]-3-yl)-3-(trifluoromethyl)benzamide] and Cc1ncc(NC(=O)c2cccc(C(F)(F)F)c2)cc1-c1cc(NCCO)nc(C2(O)CCOCC2)c1 [Example 302, N-(2′-((2-hydroxyethyl)amino)-6′-(4-hydroxytetrahydro-2H-pyran-4-yl)-2-methyl-[3,4′-bipyridin]-5-yl)-3-(trifluoromethyl) benzamide] are within 1.5-fold of each other in IC50: 2 nM for the first, 1.53 nM for the second.

Going from COc1ncc(-c2cc(NC(=O)c3cc(C(F)(F)F)cc(C(C)(C)N)n3)cnc2C)cc1C1(C(F)F)COC1 [Example 148, 6-(2-aminopropan-2-yl)-N-(5′-(3-(difluoromethyl)oxetan-3-yl)-6′-methoxy-2-methyl-[3,3′-bipyridin]-5-yl)-4-(trifluoromethyl)picolin-amide] to COc1ncc(-c2cc(NC(=O)c3ccnc(C(C)(C)C#N)c3)cnc2C)cc1C1(F)COC1 [Example 80, 2-(2-cyanopropan-2-yl)-N-(5′-(3-fluorooxetan-3-yl)-6′-methoxy-2-methyl-[3,3′-bipyridin]-5-yl)isonicotinamide], the IC50 falls from 9.2 nM to 2 nM (4.6-fold).
